Measured values from patent US8598354B2, “Compounds having antiparasitic or anti-infectious activity” (University of South Florida, priority 2008, dated 2013).

Tests used:
P. falciparum = test: In vitro antiplasmodial activity, MSF assay, strain not specified or all 3 strains together; assay type: cell-based, Plasmodium falciparum; conditions: for IC50: strain not stated, read-out: IC50 (effect of 3-position side chain length); for in vitro antiplasmodial activity (SAR remark in words): compared within the endochin series; for reduction of potency relative to ELQ-121: relative to ELQ-121, in vitro testing
Procedure: (§1) Plasmodium falciparum strains D6 and Dd2 were obtained from the MR4 (ATCC, Manassas, Va., USA). D6 is sensitive to chloroquine but mildly resistant to mefloquine while Dd2 is resistant to multiple quinoline and antifolate antimalarial agents. Tm90.C2B is resistant to atovaquone, chloroquine, mefloquine, and quinine.
Three different laboratory strains of P. falciparum were cultured in human erythrocytes by standard methods under a low oxygen atmosphere (5% O2, 5% CO2, 90% N2) in an environmental chamber as described in Trager, W., and J. B. Jensen. 1976. Human malaria parasites in continuous culture. Science 193:673-5. The culture medium was RPMI-1640, supplemented with 25 mM HEPES buffer, 25 mg/L gentamicin sulfate, 45 mg/L hypoxanthine, 10 mM glucose, 2 mM glutamine, and 0.5% Albumax II (complete medium). The parasites were maintained in fresh human erythrocytes suspended at a 2% hematocrit in complete medium at 37° C. Stock cultures were sub-passaged every 3 to 4 days by transfer of infected red cells to a flask containing complete medium and uninfected erythrocytes.
In vitro antimalarial activity of the compounds was assessed by the SYBR Green I fluorescence-based method (the “MSF assay”) described previously by Smilkstein, M., N. Sriwilaijaroen, J. X. Kelly, P. Wilairat, and M. Riscoe. 2004. Simple and inexpensive fluorescence-based technique for high-throughput antimalarial drug screening. Antimicrob Agents Chemother 48:1803-6 with minor modifications (Winter, R. W., J. X. Kelly, M. J. Smilkstein, R. Dodean, G. C. Bagby, R. K. Rathbun, J. I. Levin, D. Hinrichs, and M. K. Riscoe. 2006. Evaluation and lead optimization of anti-malarial acridones. Exp Parasitol 114:47-56). Experiments were set up in triplicate in 96 well plates (Costar, Corning) with two-fold dilutions of each drug across the plate in a total volume of 100 microliters and at a final red blood cell concentration of 2% (v/v). Stock solutions of each drug were prepared by dissolving in ethanol or dimethylsulfoxide (as appropriate) at 10 mM. […] Automated pipeting and dilution was carried out with the aid of a programmable Precision 2000 robotic station (BioTek, Winooski, Vt.). An initial parasitemia of 0.2% was attained by addition of normal uninfected red cells to a stock culture of asynchronous parasite infected red cells (PRBC). The plates were incubated for 72 hrs at 37° C. in an atmosphere of 5% CO2, 5% O2, and 90% N2. After this period the SYBR Green I dye-detergent mixture (100 μl) was added and the plates were incubated at room temperature for an hour in the dark and then placed in a 96-well fluorescence plate reader (Spectramax Gemini-EM, […]) for analysis with excitation and emission wavelength bands centered at 497 and 520 nm, respectively. The fluorescence readings were plotted against the logarithm of the drug concentration and curve fitting by nonlinear regression analysis (GraphPad Prism software) yielded the drug concentration that produced 50% of the observed decline relative to the maximum readings in drug-free control wells (IC50).
The compounds were screened for antiplasmodial activity in vitro against chloroquine (CQ) sensitive (D6), multidrug resistant (Dd2), and chloroquine/quinine/atovaquone (ATV)-resistant (Tm90.C2B) strains of P. falciparum. […] The following observations on the structure-activity relationships (SAR) can be made: • 1. It may be observed that the length of the 3-position side chain influences the antiplasmodial effect.

[1] = tested on: Plasmodium falciparum strain Tm90.C2B (chloroquine/quinine/atovaquone-resistant); test: In vitro antimalarial activity, MSF assay, strain Tm90.C2B; assay type: cell-based; conditions: Tm90.C2B compared with the other strains
Procedure: as §1
(§2) Three different laboratory strains of P. falciparum were cultured in human erythrocytes by standard methods under a low oxygen atmosphere (5% O2, 5% CO2, 90% N2) in an environmental chamber as described in Trager, W., and J. B. Jensen. 1976. Human malaria parasites in continuous culture. Science 193:673-5. […]
(§3) In vitro antimalarial activity of the compounds was assessed by the SYBR Green I fluorescence-based method (the “MSF assay”) described previously by Smilkstein, M., N. Sriwilaijaroen, J. X. Kelly, P. Wilairat, and M. Riscoe. […] Simple and inexpensive fluorescence-based technique for high-throughput antimalarial drug screening. […] After this period the SYBR Green I dye-detergent mixture (100 μl) was added and the plates were incubated at room temperature for an hour in the dark and then placed in a 96-well fluorescence plate reader (Spectramax Gemini-EM, […]) for analysis with excitation and emission wavelength bands centered at 497 and 520 nm, respectively. […]

[2] = Water solubility and vehicle miscibility of the prodrug; assay type: physicochemical; conditions: prodrug compared with ELQ-121
P. yoelii = test: In vivo efficacy in a murine malaria model of patent infection with P. yoelii (modified Thompson procedure)
Procedure: The activity of the ester, ELQ-125, against the blood stages was assessed using a modified Thompson procedure (Arba Ager, 1984). Rodent malaria models, vol. 68/1. Springer-Verlag, Berlin. Mice (female, CF1) were infected intravenously with 1-5 million P. yoelii parasitized erythrocytes from a donor animal. […] The drug was administered by gavage once daily for 3 days. On the 4th day blood films were prepared and the extent of parasitemia was determined microscopically. ED50 and ED90 values (mg/kg/day) were derived from the dose required to reduce the parasite burden by 50% and 90%, respectively, relative to drug-free controls. The procedures involved, together with all matters relating to the care and housing of the animals used in this study, were approved by the Portland VA Medical Center Institutional Animal Care and Use Committee (approval #0807).
Prodrugs containing a water-soluble pro-moiety that could be metabolically released after drug administration were designed and synthesized.

[3] = tested on: Toxoplasma gondii strain 2F; test: Anti-T. gondii activity, 2F strain beta-galactosidase assay in HFF cells; assay type: cell-based; conditions: compared with the correlation seen for P. falciparum
Procedure: Determination of anti-T. gondii IC50 and TD50 values—use of the 2F strain. This method, which employs tachyzoites of Toxoplasma gondii strain 2F that constitutively expresses cytoplasmic Beta-galactosidase, has been described recently by Jones-Brando et al. (Jones-Brando, L., D'angelo, J., Posner, G H, and Yolken, R., 2006, In vitro inhibition of Toxoplasma gondii by four new derivatives of artemisinin, Antimicrobial Agents and Chemotherapy 50: 4206-8). […] Briefly, each drug was dissolved in ethanol or DMSO, as appropriate, at a concentration of 10 mM and diluted with complete Dulbecco's modified Eagle's medium (DMEM) to 1,000 μM. […] After this period, Triton X-100 is added to inactivate the parasite and the color reactions in the wells were read in a microplate reader. For anti-T. gondii IC50 determinations, the plates are read at 570-650 nm. The amount of absorbance (570-650 nm) in wells containing drug, parasites, and CPRG reagent is compared to that in control wells containing T. gondii, HFF cells and CPRG. The amount of absorbance in these wells is directly proportional to the amount of beta-galactosidase activity and thus correlative to the number of viable tachyzoites in each well. Thus, a decrease in the amount of absorbance indicates an inhibition of parasite growth. […]

[4] = tested on: Plasmodium falciparum strain D6 (chloroquine sensitive); test: In vitro antimalarial activity, SYBR Green I fluorescence-based method (MSF assay), strain D6; assay type: cell-based; conditions: P. falciparum D6, 72 hrs
Procedure: as §1, §2, §3

[5] = mice, gavage once daily for 3 days in 100 μl NeoBee M5

CCCCc1c(C)[nH]c2cc(OC)ccc2c1=O [ELQ-115]
IC50 (P. falciparum): ~30 nM

CCCCCCCc1c(C)[nH]c2cc(OC)ccc2c1=O [ELQ-100, endochin, reference compound]
IC50 (P. falciparum): ~3 nM
cross-resistance / sensitivity of atovaquone-resistant Tm90.C2B (in words) [1]: modest level of ATV cross-resistance

COc1ccc2c(=O)c(CCCCCCCCCCC(F)(F)F)c(C)[nH]c2c1 [ELQ-103]
IC50 values for all 3 tested strains (in words) (P. falciparum; D6, Dd2 and Tm90.C2B): low nanomolar range

CCCCCCCc1c(C)[nH]c2ccccc2c1=O [ELQ-127]
in vitro antiplasmodial activity (SAR remark in words) (P. falciparum): equally active against all three parasite strains
weakening of in vitro activity relative to endochin (P. falciparum; relative to endochin): roughly 5 fold

CCCCCCCc1c(C)[nH]c2cc(O)ccc2c1=O [ELQ-117]
in vitro antiplasmodial activity (SAR remark in words) (P. falciparum): greatly diminishes antiplasmodial activity

CCCCCCCc1c(C)[nH]c2c(F)cc(F)cc2c1=O [6,8-difluoro positional isomer]
reduction of potency relative to ELQ-121 (P. falciparum): ≈ 2,000 fold

CCCCCCCc1c(C)[nH]c2cc(Cl)ccc2c1=O [ELQ-109]
in vitro antiplasmodial activity (SAR remark in words) (P. falciparum): only a modest reduction in in vitro potency

CCCCCCCc1c(C)[nH]c2cc(Cl)cc(Cl)c2c1=O [ELQ-124]
in vitro antiplasmodial activity (SAR remark in words) (P. falciparum): weak in vitro activity

CCCCCCCc1c(C)[nH]c2cc(F)ccc2c1=O [ELQ-120]
in vitro antiplasmodial activity (SAR remark in words) (P. falciparum): only a modest reduction in in vitro potency

CCCCCCCc1c(C)[nH]c2ccc(Cl)cc2c1=O [ELQ-130]
in vitro antiplasmodial activity (SAR remark in words) (P. falciparum): modest reduction in antimalarial response
cross-resistance / sensitivity of atovaquone-resistant Tm90.C2B (in words) [1]: equal sensitivity

CCCCCCCc1c(C)nc2cc(F)cc(F)c2c1OC(=O)OCCOCCOCCOCCOC [ELQ-125]
water solubility [2]: improved water solubility
parasite status on follow-up (P. yoelii; 25 mg/kg/day oral, 3 days, followed until euthanized 10 days later): remained parasite-free
ED50 (P. yoelii; [5]): 11 mg/kg/day
ED90 (P. yoelii; [5]): 22 mg/kg/day
in vivo efficacy (in words) (P. yoelii; prodrug compared with ELQ-121): greatly enhanced in vivo efficacy

CCCCCCCc1c(C)n(C)c2cc(F)cc(F)c2c1=O [ELQ-134]
reduction of potency relative to ELQ-121 (P. falciparum): about 300 fold
growth inhibitory activity against Toxoplasma gondii (in words) [3]: enhanced growth inhibitory activity

CCCCCCCc1c(C)nc2cc(F)cc(F)c2c1Cl [ELQ-119]
reduction of potency relative to ELQ-121 (P. falciparum): > 1,000 fold

CCCCCCCc1c(C)[nH]c2cc(F)cc(F)c2c1=O [ELQ-121, 2-Methyl-3-(n-heptyl)-5.7-difluorquinolone]
in vitro antiplasmodial activity (SAR remark in words) (P. falciparum): one of the most potent compounds in the tested series

CCCCCCCc1c(O)[nH]c2cc(OC)ccc2c1=O [ELQ-106]
IC50 [4]: > 2500 nM
